Earlier results as cited in paper PMC7838024 (Acta Pharmaceutica Sinica. B, 2020).

Settings: rats, doses from 0.5 to 1.5 mg/kg

## CO[C@H]1C(=O)[C@]2(C)[C@@H](OC)C[C@H]3OC[C@@]3(OC(C)=O)[C@H]2[C@H](OC(=O)c2ccccc2)[C@]2(O)C[C@H](OC(=O)[C@H](O)[C@@H](NC(=O)OC(C)(C)C)c3ccccc3)C(C)=C1C2(C)C [CTX, cabazitaxel]
  central nervous system toxicity: dose-dependent central nervous system toxicity
